The text below walks through data of patent publication US9926302B2, “Heteroaryl substituted heterocyclyl sulfones” (priority 2014, dated 2018).

The target in one assay is T1, Human CaV2.2 channels (Homo sapiens, UniProt Q00975).
T1 construct: expressed in transfected cells
T1 sequence (P54289 947-1103): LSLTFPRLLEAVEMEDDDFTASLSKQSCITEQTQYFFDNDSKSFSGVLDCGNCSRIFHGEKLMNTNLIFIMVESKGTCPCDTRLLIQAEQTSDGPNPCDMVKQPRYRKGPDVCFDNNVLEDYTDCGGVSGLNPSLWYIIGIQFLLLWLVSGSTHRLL
T1 sequence (P54289 25-946): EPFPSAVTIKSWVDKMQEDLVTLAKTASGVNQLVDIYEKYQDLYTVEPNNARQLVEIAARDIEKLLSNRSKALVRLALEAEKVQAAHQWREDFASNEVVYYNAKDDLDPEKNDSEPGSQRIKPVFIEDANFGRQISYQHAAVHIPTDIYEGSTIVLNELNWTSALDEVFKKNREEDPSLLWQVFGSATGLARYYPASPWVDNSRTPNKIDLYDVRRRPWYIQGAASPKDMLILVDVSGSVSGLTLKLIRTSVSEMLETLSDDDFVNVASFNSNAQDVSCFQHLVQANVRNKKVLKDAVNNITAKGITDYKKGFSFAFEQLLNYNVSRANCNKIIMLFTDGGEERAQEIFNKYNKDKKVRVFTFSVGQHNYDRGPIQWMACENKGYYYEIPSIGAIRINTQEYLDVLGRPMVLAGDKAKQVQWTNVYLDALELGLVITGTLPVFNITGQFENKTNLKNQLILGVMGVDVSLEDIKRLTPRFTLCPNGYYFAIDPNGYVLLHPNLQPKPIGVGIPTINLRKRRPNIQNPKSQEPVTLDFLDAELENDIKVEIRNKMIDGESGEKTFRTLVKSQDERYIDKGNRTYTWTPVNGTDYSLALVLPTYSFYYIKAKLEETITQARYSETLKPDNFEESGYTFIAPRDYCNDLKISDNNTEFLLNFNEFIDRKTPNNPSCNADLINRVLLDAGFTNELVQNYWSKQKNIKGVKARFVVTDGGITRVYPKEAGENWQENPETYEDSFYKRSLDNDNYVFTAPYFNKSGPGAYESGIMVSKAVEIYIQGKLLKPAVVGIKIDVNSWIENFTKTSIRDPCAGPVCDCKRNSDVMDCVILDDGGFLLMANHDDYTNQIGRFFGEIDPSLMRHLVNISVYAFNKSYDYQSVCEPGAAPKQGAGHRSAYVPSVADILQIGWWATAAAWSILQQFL
T1 sequence (P54284 whole entry, further chain): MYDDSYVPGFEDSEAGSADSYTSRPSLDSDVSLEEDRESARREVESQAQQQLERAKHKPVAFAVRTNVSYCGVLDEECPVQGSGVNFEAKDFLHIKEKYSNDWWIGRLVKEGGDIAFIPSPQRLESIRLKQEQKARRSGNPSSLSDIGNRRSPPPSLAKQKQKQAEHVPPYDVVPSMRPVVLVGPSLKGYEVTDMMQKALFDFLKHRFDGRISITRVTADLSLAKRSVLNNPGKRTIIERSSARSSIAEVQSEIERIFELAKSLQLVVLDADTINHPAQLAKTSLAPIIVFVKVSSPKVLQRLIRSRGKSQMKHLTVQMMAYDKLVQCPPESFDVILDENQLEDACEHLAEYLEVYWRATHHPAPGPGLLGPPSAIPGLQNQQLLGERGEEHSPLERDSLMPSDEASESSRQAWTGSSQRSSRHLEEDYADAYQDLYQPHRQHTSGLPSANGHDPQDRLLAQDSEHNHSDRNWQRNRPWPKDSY
T1 sequence (Q00975 whole entry): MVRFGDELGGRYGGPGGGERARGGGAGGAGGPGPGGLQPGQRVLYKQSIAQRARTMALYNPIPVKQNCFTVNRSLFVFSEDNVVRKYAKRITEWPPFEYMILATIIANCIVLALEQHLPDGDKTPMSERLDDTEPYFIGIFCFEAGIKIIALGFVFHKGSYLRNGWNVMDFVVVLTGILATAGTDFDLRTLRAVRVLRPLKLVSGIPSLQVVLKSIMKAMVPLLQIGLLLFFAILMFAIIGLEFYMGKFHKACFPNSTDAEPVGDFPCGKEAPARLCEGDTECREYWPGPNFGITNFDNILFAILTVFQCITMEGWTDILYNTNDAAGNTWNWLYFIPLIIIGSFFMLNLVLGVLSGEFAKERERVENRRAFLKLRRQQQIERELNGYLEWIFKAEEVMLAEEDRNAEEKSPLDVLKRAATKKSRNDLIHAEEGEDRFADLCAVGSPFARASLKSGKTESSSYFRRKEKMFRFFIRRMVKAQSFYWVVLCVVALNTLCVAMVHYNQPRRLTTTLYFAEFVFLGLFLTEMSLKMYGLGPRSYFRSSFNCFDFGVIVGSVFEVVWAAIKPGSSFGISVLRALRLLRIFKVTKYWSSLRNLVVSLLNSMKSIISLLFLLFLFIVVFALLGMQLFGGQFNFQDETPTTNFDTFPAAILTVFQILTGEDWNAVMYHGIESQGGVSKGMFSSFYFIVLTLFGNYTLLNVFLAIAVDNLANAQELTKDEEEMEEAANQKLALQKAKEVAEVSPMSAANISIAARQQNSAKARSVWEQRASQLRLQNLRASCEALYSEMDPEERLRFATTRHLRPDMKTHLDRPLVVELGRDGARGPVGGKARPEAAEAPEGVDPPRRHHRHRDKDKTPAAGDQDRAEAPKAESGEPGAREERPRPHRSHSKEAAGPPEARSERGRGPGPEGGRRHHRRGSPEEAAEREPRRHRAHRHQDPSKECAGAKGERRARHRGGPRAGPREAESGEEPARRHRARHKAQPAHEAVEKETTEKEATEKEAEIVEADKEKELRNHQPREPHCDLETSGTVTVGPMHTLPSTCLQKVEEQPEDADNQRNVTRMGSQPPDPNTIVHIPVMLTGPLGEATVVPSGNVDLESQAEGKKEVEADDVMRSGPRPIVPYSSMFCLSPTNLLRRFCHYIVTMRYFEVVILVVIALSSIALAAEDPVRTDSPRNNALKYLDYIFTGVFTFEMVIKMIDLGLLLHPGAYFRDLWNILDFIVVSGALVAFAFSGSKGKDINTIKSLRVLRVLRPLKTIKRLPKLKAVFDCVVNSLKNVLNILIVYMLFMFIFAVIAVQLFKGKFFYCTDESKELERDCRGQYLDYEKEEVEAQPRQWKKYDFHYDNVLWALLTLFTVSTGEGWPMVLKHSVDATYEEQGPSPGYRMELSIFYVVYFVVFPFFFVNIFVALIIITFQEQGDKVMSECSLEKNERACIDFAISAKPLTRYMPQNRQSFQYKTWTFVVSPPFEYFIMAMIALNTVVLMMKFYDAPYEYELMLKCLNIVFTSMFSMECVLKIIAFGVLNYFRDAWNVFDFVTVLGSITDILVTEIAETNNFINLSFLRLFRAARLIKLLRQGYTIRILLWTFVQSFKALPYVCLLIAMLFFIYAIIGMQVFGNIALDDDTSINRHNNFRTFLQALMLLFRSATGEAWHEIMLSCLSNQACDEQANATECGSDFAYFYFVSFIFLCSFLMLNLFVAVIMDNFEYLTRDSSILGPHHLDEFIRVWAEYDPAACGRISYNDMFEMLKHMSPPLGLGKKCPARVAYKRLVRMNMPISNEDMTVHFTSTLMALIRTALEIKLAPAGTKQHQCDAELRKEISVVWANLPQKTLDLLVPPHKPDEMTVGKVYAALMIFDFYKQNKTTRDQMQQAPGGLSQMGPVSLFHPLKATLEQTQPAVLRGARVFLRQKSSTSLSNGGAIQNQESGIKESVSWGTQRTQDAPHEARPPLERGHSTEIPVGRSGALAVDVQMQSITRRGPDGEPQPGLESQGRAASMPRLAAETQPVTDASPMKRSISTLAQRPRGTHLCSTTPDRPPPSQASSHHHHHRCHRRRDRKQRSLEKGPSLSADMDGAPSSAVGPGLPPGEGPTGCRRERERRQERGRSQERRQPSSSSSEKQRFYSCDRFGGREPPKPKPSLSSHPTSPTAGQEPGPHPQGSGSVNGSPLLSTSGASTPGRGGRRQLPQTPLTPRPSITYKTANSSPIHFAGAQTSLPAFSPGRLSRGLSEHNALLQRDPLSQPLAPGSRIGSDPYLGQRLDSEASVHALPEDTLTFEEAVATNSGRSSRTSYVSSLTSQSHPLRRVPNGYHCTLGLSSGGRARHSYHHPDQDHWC
The experiment in a line: Fluorescence assay for CaV2.2 channels using potassium depolarization to induce channel opening (FLIPR, Fluo 4). Type of assay: cell-based. Conditions: 3 μM test compound; alternative assay buffer 30 mM KCl (inactivated channel state); HEK293 cells stably expressing human CaV2.2. An excerpt:
In the process, the Ca^2+ influx is quantified in the FLIPR assay with the aid of a Ca^2+-sensitive dye (type Fluo-4, Molecular Probes Europe BV, Leiden, the Netherlands) in a fluorescent imaging plate reader (FLIPR 3, Molecular Devices, Sunnyvale, USA), as described hereinafter.
2.1 Fluorescence Assay for CaV2.2 Channels Using Potassium Depolarization to Induce Channel Opening
Human CaV2.2 channels were stably expressed in HEK293 cells together with alpha2-delta and beta subunits of voltage gated calcium channels. In addition, an inwardly rectifying potassium channel (Kir2.3) was stably expressed in these cells to augment control of the cell membrane potential by the concentration of extracellular potassium ions. Raise of the extracellular potassium concentration leads to depolarization of the membrane potential and thus regulates the voltage dependent state of CaV2.2 channels. For preparation, cells were seeded in black poly-D-lysine coated 96-well plates (Becton Dickinson, Biocoat 4640) in 100 μL medium [500 mL DMEM/F-12 plus Glutamax (Invitrogen 31331-093) plus 5.5 mL MEM NEAA 100× (Invitrogen 11140-035) plus 50 mL FBS decomplemented (Invitrogen 10270-106) plus 200 μg/mL Geneticin (Invitrogen 10131-027) plus 50 μg/mL Hygromycin B (Invitrogen 10687-010) plus 2 μg/mL Blasticidin (anti-bl5b Invivo-Gen) plus 0.2 μg/mL Puromycin (A 11138-03)] at a cell density of 30.000 cells per well. Plates were incubated at 37° C. (5% CO2) for 20 to 23 h. On the day of experiment medium was discarded and cells were loaded with Fluo 4 by addition of 100 μL of basic assay buffer (10 mM HEPES, 1 mM KCl, 149 mM NaCl, 0.8 mM CaCl2, 1.7 mM MgCl2, 10 mM Glucose, 0.1% BSA. pH 7.4) containing 2 μM Fluo 4 (Molecular Probes; F-14201), 0.01% pluronic acid (Molecular Probes; P-6866) and 2.5 mM probenecid (Molecular Probes; P36400). Cells were incubated in the dark at 25° C. for 60 min. Then dye containing buffer was discarded and 100 μL basic (1 mM KCl) or alternative (30 mM KCl) assay buffer was added. The alternative assay buffer contained altered concentrations of KCl (30 mM) and NaCl (120 mM) and was used in order to promote the inactivated channel state. After that 25 μL of basic or alternative assay buffer with or without test compound were added and cells were incubated again in the dark at 25° C. for 15 min. Fluorescence intensity was measured on a FLIPR 3 instrument (Molecular Devices Corp., Sunnyvale, Calif.) with excitation at 480 nm and emission at 535 nm. After continuously reading fluorescence for 30 sec, 50 μL of basic assay buffer containing 210 mM KCl (NaCl omitted) were added for depolarization. Peak fluorescent signal intensity was determined and the amplitude of the peak signal, normalized to base line, was used to measure channel inhibition by test compounds.
As to `CC1(S(=O)(=O)c2cccc(C(F)(F)F)c2)CCOC(COc2cnc(C3CC3)cn2)C1` (single isomer, unassigned) [SC-133, 2-Cyclopropyl-5-[[4-methyl-4-[[3-(trifluoromethyl)phenyl]sulfonyl]-tetrahydro-pyran-2-yl]-methoxy]-pyrazine], the “Activity Category: %-Inhib (CaV2.2) @3 μM @30 mM KCl” value (“Activity Category: %-Inhib” below) is “A (%-Inhibition >95%)”.

On to `CC1(S(=O)(=O)c2cccc(C(F)(F)F)c2)CCOC(c2cncc(S(C)(=O)=O)c2)C1` (stereo not drawn) [SC-100, 3-Methylsulfonyl-5-[4-methyl-4-[[3-(trifluoromethyl)phenyl]sulfonyl]-tetrahydro-pyran-2-yl]-pyridine], for which the “Activity Category: %-Inhib” value is on record as “C (%-Inhibition >40% up to ≤75%)”.

As for `CC1(S(=O)(=O)c2cccc(C(F)(F)F)c2)CCOC(c2cncc(S(C)(=O)=O)c2)C1` (stereo not drawn) [SC-101, 3-Methylsulfonyl-5-[4-methyl-4-[[3-(trifluoromethyl)phenyl]sulfonyl]-tetrahydro-pyran-2-yl]-pyridine], the “Activity Category: %-Inhib” value is “B (%-Inhibition >75% up to ≤95%)”.

As for `CCC1(S(=O)(=O)c2cccc(C(F)(F)F)c2)CCOC(c2ccc(C(F)(F)F)cn2)C1` (stereo not drawn) [SC-107, 2-[4-Ethyl-4-[[3-(trifluoromethyl)phenyl]sulfonyl]-tetrahydro-pyran-2-yl]-5-(trifluoromethyl)-pyridine], the “Activity Category: %-Inhib” value is “A (%-Inhibition >95%)”.

Take `CCC1(S(=O)(=O)c2cccc(C(F)(F)F)c2)CCOC(c2ccc(C(F)(F)F)cn2)C1` (stereo not drawn) [SC-108, 2-[4-Ethyl-4-[[3-(trifluoromethyl)phenyl]sulfonyl]-tetrahydro-pyran-2-yl]-5-(trifluoromethyl)-pyridine]: the “Activity Category: %-Inhib” value is on record as “A (%-Inhibition >95%)”.

As to `CCC1(S(=O)(=O)c2cccc(C(F)(F)F)c2)CCOC(c2ccc(C(F)(F)F)cn2)C1` (stereo not drawn) [SC-109, 2-[4-Ethyl-4-[[3-(trifluoromethyl)phenyl]sulfonyl]-tetrahydro-pyran-2-yl]-5-(trifluoromethyl)-pyridine], the “Activity Category: %-Inhib” value is “B (%-Inhibition >75% up to ≤95%)”.

`CC1(S(=O)(=O)c2cccc(C(F)(F)F)c2)CCOC(c2cnc(C3CC3)nc2)C1` (stereo not drawn) [SC-204, 2-Cyclopropyl-5-[4-methyl-4-[[3-(trifluoromethyl)phenyl]sulfonyl]-tetrahydro-pyran-2-yl]-pyrimidine]: the “Activity Category: %-Inhib” value is listed as “B (%-Inhibition >75% up to ≤95%)”.

For `CC1(S(=O)(=O)c2cccc(C(F)(F)F)c2)CCOC(COc2ccc(C(F)(F)F)nc2)C1` (stereo not drawn) [SC-209, 5-[[4-Methyl-4-[[3-(trifluoromethyl)phenyl]sulfonyl]-tetrahydro-pyran-2-yl]-methoxy]-2-(trifluoromethyl)-pyridine], the “Activity Category: %-Inhib” value was “A (%-Inhibition >95%)”.

With `CC1(S(=O)(=O)c2cc(F)cc(C(F)(F)F)c2)CCOC(c2ncc(S(C)(=O)=O)cc2Cl)C1` (stereo not drawn) [SC-214, 3-Chloro-2-[4-[[3-fluoro-5-(trifluoromethyl)-phenyl]sulfonyl]-4-methyl-tetrahydro-pyran-2-yl]-5-methylsulfonyl-pyridine], the “Activity Category: %-Inhib” value is “C (%-Inhibition >40% up to ≤75%)”.

With `CC1(S(=O)(=O)c2cc(F)cc(C(F)(F)F)c2)CCOC(c2ncc(S(C)(=O)=O)cc2Cl)C1` (stereo not drawn) [SC-215, 3-Chloro-2-[4-[[3-fluoro-5-(trifluoromethyl)-phenyl]sulfonyl]-4-methyl-tetrahydro-pyran-2-yl]-5-methylsulfonyl-pyridine], the “Activity Category: %-Inhib” value was “B (%-Inhibition >75% up to ≤95%)”.

The assay is the same for the next values; noted with them: HEK293, 3 μM test compound; alternative assay buffer 30 mM KCl (inactivated channel state); HEK293 cells stably expressing human CaV2.2; read-out: Activity Category: %-Inhib (CaV2.2) @3 μM @30 mM KCl.
For `CC1(S(=O)(=O)c2cccc(C(F)(F)F)c2)CCOC(c2ccc(C3CC3)cn2)C1` (stereo not drawn) [SC-103, 5-Cyclopropyl-2-[4-methyl-4-[[3-(trifluoromethyl)phenyl]sulfonyl]-tetrahydro-pyran-2-yl]-pyridine], the inhibition at 3 µM is greater than 95%.

As to `CC1(S(=O)(=O)c2cccc(C(F)(F)F)c2)CCOC(c2ccc(S(C)(=O)=O)cn2)C1` (stereo not drawn) [SC-104, 5-Methylsulfonyl-2-[4-methyl-4-[[3-(trifluoromethyl)phenyl]sulfonyl]-tetrahydro-pyran-2-yl]-pyridine], the inhibition at 3 µM lay in the range of 75 to 95%.

Take `CCC1(S(=O)(=O)c2cccc(C(F)(F)F)c2)CCOC(c2ccc(C(F)(F)F)cn2)C1` (stereo not drawn) [SC-106, 2-[4-Ethyl-4-[[3-(trifluoromethyl)phenyl]sulfonyl]-tetrahydro-pyran-2-yl]-5-(trifluoromethyl)-pyridine]: the inhibition at 3 µM is greater than 95%.

For `Cc1ccc(OCC2CC(C)(S(=O)(=O)c3cccc(C(F)(F)F)c3)CCO2)cn1` (stereo not drawn) [SC-114, 2-Methyl-5-[[4-methyl-4-[[3-(trifluoromethyl)phenyl]sulfonyl]-tetrahydro-pyran-2-yl]-methoxy]-pyridine], the inhibition at 3 µM lay within 75 to 95%.

On to `CC1(S(=O)(=O)c2cccc(C(F)(F)F)c2)CCOC(c2nnc(C3CC3)o2)C1` (stereo not drawn) [SC-127, 2-Cyclopropyl-5-[4-methyl-4-[[3-(trifluoromethyl)phenyl]sulfonyl]-tetrahydro-pyran-2-yl]-[1,3,4]oxadiazole], for which the inhibition at 3 µM was 40 to 75%.

With `CC1(S(=O)(=O)c2cccc(C(F)(F)F)c2)CCOC(c2nc(C3CC3)co2)C1` (stereo not drawn) [SC-158, 4-Cyclopropyl-2-[4-methyl-4-[[3-(trifluoromethyl)phenyl]sulfonyl]-tetrahydro-pyran-2-yl]-oxazole], the inhibition at 3 µM is greater than 95%.

Consider `CCC1(S(=O)(=O)c2cccc(C(F)(F)F)c2)CCOC(c2nc(C(F)(F)F)no2)C1` (stereo not drawn) [SC-200, 5-[4-Ethyl-4-[[3-(trifluoromethyl)phenyl]sulfonyl]-tetrahydro-pyran-2-yl]-3-(trifluoromethyl)-[1,2,4]oxadiazole], for which the inhibition at 3 µM was in the range of 75 to 95%.

`CCC1(S(=O)(=O)c2cccc(C(F)(F)F)c2)CCOC(c2nc(C3CC3)no2)C1` (stereo not drawn) [SC-202, 3-Cyclopropyl-5-[4-ethyl-4-[[3-(trifluoromethyl)phenyl]sulfonyl]-tetrahydro-pyran-2-yl]-[1,2,4]oxadiazole]: the inhibition at 3 µM lay within 75 to 95%.

`CC1(S(=O)(=O)c2cccc(C(F)(F)F)c2)CCOC(c2cnc(C3CC3)nc2)C1` (stereo not drawn) [SC-205, 2-Cyclopropyl-5-[4-methyl-4-[[3-(trifluoromethyl)phenyl]sulfonyl]-tetrahydro-pyran-2-yl]-pyrimidine]: the inhibition at 3 µM is greater than 95%.

Regarding `CCC1(S(=O)(=O)c2cccc(C(F)(F)F)c2)CCOC(c2nnc(C3CC3)o2)C1` (stereo not drawn) [SC-206, 2-Cyclopropyl-5-[4-ethyl-4-[[3-(trifluoromethyl)phenyl]sulfonyl]-tetrahydro-pyran-2-yl]-[1,3,4]oxadiazole], the inhibition at 3 µM was 40 to 75%.

In the case of `CC1(S(=O)(=O)c2cccc(C(F)(F)F)c2)CCOC(COc2ccc(C(F)(F)F)nc2)C1` (stereo not drawn) [SC-208, 5-[[4-Methyl-4-[[3-(trifluoromethyl)phenyl]sulfonyl]-tetrahydro-pyran-2-yl]-methoxy]-2-(trifluoromethyl)-pyridine], the inhibition at 3 µM is 75 to 95%.

As for `CC1(S(=O)(=O)c2cccc(S(C)(=O)=O)c2)CCOC(c2ncc(C(F)(F)F)cc2S(C)(=O)=O)C1` (stereo not drawn) [SC-210, 2-[4-Methyl-4-[(3-methylsulfonyl-phenyl)sulfonyl]-tetrahydro-pyran-2-yl]-3-methylsulfonyl-5-(trifluoromethyl)-pyridine], the inhibition at 3 µM was greater than 95%.

Take `CC1(S(=O)(=O)c2cccc(C(F)F)c2)CCOC(c2ncc(C(F)(F)F)cc2S(C)(=O)=O)C1` (stereo not drawn) [SC-212, 2-[4-[[3-(Difluoro-methyl)-phenyl]sulfonyl]-4-methyl-tetrahydro-pyran-2-yl]-3-methylsulfonyl-5-(trifluoromethyl)-pyridine]: the inhibition at 3 µM fell in the range of 75 to 95%.

Take `CC1(S(=O)(=O)c2cc(F)cc(C(F)F)c2)CCOC(c2ncc(S(C)(=O)=O)cc2Cl)C1` (stereo not drawn) [SC-216, 3-Chloro-2-[4-[[3-(difluoro-methyl)-5-fluoro-phenyl]sulfonyl]-4-methyl-tetrahydro-pyran-2-yl]-5-methylsulfonyl-pyridine]: the inhibition at 3 µM was in the range of 40 to 75%.
